The target in experiment [1] is Bruton's tyrosine kinase (BTK) (Homo sapiens (Human), UniProt Q06187). The experiment can be described thus: BTK enzyme inhibition assay (Cisbio HTRF kit). The experiment is classed as biochemical. The following applies: 30 minutes reaction, fluorescence 665 nm/620 nm. Here is the method: BTK enzyme evaluation with each compound of examples of the invention was performed by using BTK enzyme inhibition diagnosis kit (Cisbio, Codolet, France). […] Then, EDTA (ethylenediaminetetraacetic acid) was added thereto in order to terminate the reaction. At this time, the EDTA solution contained curopium-containing antibody (antiphosphoresidue antibody) and straptavidin-XL665 (SA-XL665, Cisbio). After incubation for 1 hour, fluorescence was measured. The emission values of 665 nm and 620 nm excited at 337 nm were measured with Envision reader. IC50 values were determined using GraphPad prism (version 5). Herein, the curve indicates a nonlinear regression model, which was determined by logarithmic functions and reaction values.

For a further experiment, the system named is TMD8 cells. As to the kind of experiment: TMD8 cell growth inhibition (WST-1, 72 hours). It is filed as cell-based. The following applies: Homo sapiens, TMD8 ABC type DLBCL cell line, WST-1, absorbance 450 nm. Here is the method:
TDM-8 cells, the ABC (activated B-cell) type DLBCL (diffuse large B cell lymphoma) cell line sensitive to BTK signaling, were seeded in a 96-well plate at 30% confluency. Then, the compounds of the invention were treated thereto at different concentrations. 72 hours later, WST-1 reagent was added thereto. One hour later, absorbance was measured at 450 nm by using a spectramax spectrophotometer.

Counter-ions that a name gives are not always drawn.

Sequence of Bruton's tyrosine kinase (BTK) (Q06187 whole entry): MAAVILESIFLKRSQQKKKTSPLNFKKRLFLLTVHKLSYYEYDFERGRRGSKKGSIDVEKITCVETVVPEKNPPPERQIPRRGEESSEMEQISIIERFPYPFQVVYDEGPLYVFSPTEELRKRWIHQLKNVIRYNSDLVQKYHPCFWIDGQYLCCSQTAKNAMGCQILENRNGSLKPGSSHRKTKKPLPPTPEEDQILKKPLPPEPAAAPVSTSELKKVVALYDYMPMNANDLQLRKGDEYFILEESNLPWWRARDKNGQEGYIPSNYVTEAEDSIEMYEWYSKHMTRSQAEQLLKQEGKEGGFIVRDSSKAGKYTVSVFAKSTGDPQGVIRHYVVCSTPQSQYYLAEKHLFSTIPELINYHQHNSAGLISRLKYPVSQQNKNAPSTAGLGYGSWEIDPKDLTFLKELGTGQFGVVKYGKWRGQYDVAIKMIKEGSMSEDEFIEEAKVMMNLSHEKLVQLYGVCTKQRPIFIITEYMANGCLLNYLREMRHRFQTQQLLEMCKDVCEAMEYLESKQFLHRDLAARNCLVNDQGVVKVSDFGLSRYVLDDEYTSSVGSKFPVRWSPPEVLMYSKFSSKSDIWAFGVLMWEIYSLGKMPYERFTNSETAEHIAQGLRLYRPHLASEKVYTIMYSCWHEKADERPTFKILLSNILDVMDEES

`Cc1cccc(C)c1Nc1nn(C)c2nc(Nc3ccc4c(c3)CN(C(=O)C3CC3)CC4)ncc12` [Example 23, cyclopropyl(7-(3-(2,6-dimethylphenylamino)-1-methyl-1H-pyrazolo[3,4-d]pyrimidine-6-ylamino)-3,4-dihydroisoquinoline-2(1H)-yl)methanone]: the IC50 stood at 0.0003 µM in experiment [1] and 0.0879 µM with TMD8 cells.
The corresponding values for `Cc1cccc(C)c1Nc1nn(C)c2nc(Nc3ccc4c(c3)CN(CCO)CC4)ncc12` [Example 24, 2-(7-((3-((2,6-dimethylphenyl)amino)-1-methyl-1H-pyrazolo[3,4-d]pyrimidine-6-yl)amino)-3,4-dihydroisoquinoline-2(1H)-yl)ethane-1-ol] are 0.0003 µM and 0.0401 µM.
The matching figures for `Cc1cccc(C)c1Nc1nn(C2CCCC2)c2nc(Nc3ccc4c(c3)CNCC4)ncc12` [Example 25, 1-cyclopentyl-N^3-(2,6-dimethylphenyl)-N^6-(1,2,3,4-tetrahydroisoquinoline-7-yl)-1H-pyrazolo[3,4-d]pyrimidine-3,6-diamine]: 0.0003 µM and 0.0903 µM.
Take `Cc1cccc(C)c1Nc1nn(C2CCCCC2)c2nc(Nc3ccc4c(c3)CNCC4)ncc12` [Example 26, 1-cyclohexyl-N^3-(2,6-dimethylphenyl)-N^6 (1,2,3,4-tetrahydroisoquinoline-7-yl)-1H-pyrazolo[3,4-d]pyrimidine-3,6-diamine]: the IC50 was 0.002 µM in experiment [1] and 0.0649 µM with TMD8 cells.
The corresponding values for `Cc1ccc(NC(=O)c2cccc(C(F)(F)F)c2)cc1Nc1nn(C)c2nc(Nc3ccc4c(c3)CNCC4)ncc12` [Example 28, N-(4-methyl-3-((1-methyl-6-((1,2,3,4-tetrahydroisoquinoline-7-yl)amino)-1H-pyrazolo[3,4-d]pyrimidine-3-yl)amino)phenyl)-3-(trifluoromethyl)benzamide] are 0.003 µM and 0.018 µM.
Consider `Cc1ccc(NC(=O)c2cccc(C(F)(F)F)c2)c(C)c1Nc1nn(C)c2nc(Nc3ccc4c(c3)CNCC4)ncc12` [Example 29, N-(2,4-dimethyl-3-(1-methyl-6-(1,2,3,4-tetrahydroisoquinoline-7-ylamino)-1H-pyrazolo[3,4-d]pyrimidine-3-ylamino)phenyl)-3-(trifluoromethyl)benzamide], for which the IC50 in experiment [1] was 0.008 µM; with TMD8 cells it was 0.117 µM.
The matching figures for `Cc1cccc(C)c1Nc1nn(C)c2nc(Nc3ccc4c(c3)CN(C(=O)CN(C)C)CC4)ncc12` [Example 31, 2-(dimethylamino)-1-(7-(3-(2,6-dimethylphenylamino)-1-methyl-1H-pyrazolo[3,4-d]pyrimidine-6-ylamino)-3,4-dihydroisoquinolin-2(1H)-yl)ethanone]: 0.0008 µM and 0.0643 µM.
The corresponding values for `CCN1CCc2ccc(Nc3ncc4c(Nc5c(C)cccc5C)nn(C)c4n3)cc2C1` [Example 32, N3-(2,6-dimethylphenyl)-N^6-(2-ethyl-1,2,3,4-tetrahydroisoquinoline-7-yl)-1-methyl-1H-pyrazolo[3,4-d]pyrimidine-3,6-diamine] are 0.0007 µM and 0.0379 µM.
The matching figures for `Cc1cc(Oc2ccccc2)cc(C)c1Nc1nn(C)c2nc(Nc3ccc4c(c3)CNCC4)ncc12` [Example 33, N-(2,6-dimethyl-4-phenoxyphenyl)-1-methyl-N^6 (1,2,3,4-tetrahydroisoquinoline-7-yl)-1H-pyrazolo[3,4-d]pyrimidine-3,6-diamine]: 0.005 µM and 0.669 µM.
Turning to `Cc1cc(C(=O)Nc2ccccn2)cc(C)c1Nc1nn(C)c2nc(Nc3ccc4c(c3)CNCC4)ncc12` [Example 34, 3,5-dimethyl-4-(1-methyl-6-(1,2,3,4-tetrahydroisoquinoline-7-ylamino)-1H-pyrazolo[3,4-d]pyrimidine-3-ylamino)-N-(pyridine-2-yl)benzamide], the half-inhibitory concentration (IC50) stood at 0.015 µM in experiment [1] and 0.178 µM in the experiment with TMD8 cells.
Regarding `COc1cc(C)c(Nc2nn(C)c3nc(Nc4ccc5c(c4)CNCC5)ncc23)c(C)c1` [Example 35, N^3-(4-methoxy-2,6-dimethylphenyl)-1-methyl-N^6-(1,2,3,4-tetrahydroisoquinoline-7-yl)-1H-pyrazolo[3,4-d]pyrimidine-3,6-diamine], the IC50 in experiment [1] is 0.003 µM; in the experiment with TMD8 cells, 0.0993 µM.
The corresponding values for `CCc1cccc(CC)c1Nc1nn(C)c2nc(Nc3ccc4c(c3)CNCC4)ncc12` [Example 36, N^3-(2,6-diethylphenyl)-1-methyl-N^6-(1,2,3,4-tetrahydroisoquinoline-7-yl)-1H-pyrazolo[3,4-d]pyrimidine-3,6-diamine] are 0.044 µM and 0.968 µM.
The corresponding values for `Cc1ccc(Nc2nn(C)c3nc(Nc4ccc5c(c4)CNCC5)ncc23)c(C)c1` [Example 39, N^3-(2,4-dimethylphenyl)-1-methyl-N^6 (1,2,3,4-tetrahydroisoquinoline-7-yl)-1H-pyrazolo[3,4-d]pyrimidine-3,6-diamine] are 0.0028 µM and 0.292 µM.
In the case of `Cc1cc(F)cc(C)c1Nc1nn(C)c2nc(Nc3ccc4c(c3)CNCC4)ncc12` [Example 44, N^3-(4-fluoro-2,6-dimethylphenyl)-1-methyl-N^6-(1,2,3,4-tetrahydroisoquinoline-7-yl)-1H-pyrazolo[3,4-d]pyrimidine-3,6-diamine], the IC50 in experiment [1] is 0.0017 µM; in the experiment with TMD8 cells it was 0.069 µM.
Turning to `Cc1ccc(NC(=O)c2cccc(C(F)(F)F)c2)cc1Nc1nn(C)c2nc(Nc3ccc4c(c3)C(C)NCC4)ncc12` (stereo not drawn) [Example 47, N-(4-methyl-3-(1-methyl-6-(1-methyl-1,2,3,4-tetrahydroisoquinoline-7-ylamino)-1H-pyrazolo[3,4-d]pyrimidine-3-ylamino)phenyl)-3-(trifluoromethyl)benzamide], the figures for the IC50 (in experiment [1]; with TMD8 cells) were 0.00542 µM and 0.0138 µM, respectively.
The matching figures for `Cc1cccc(Cl)c1Nc1nn(C)c2nc(Nc3ccc4c(c3)CNCC4)ncc12` [Example 48, N^3-(2-chloro-6-methylphenyl)-1-methyl-N^6 (1,2,3,4-tetrahydroisoquinoline-7-yl)-1H-pyrazolo[3,4-d]pyrimidine-3,6-diamine]: 0.00128 µM and 0.0502 µM.
On to `Cc1cccc(C)c1Nc1nn(C)c2nc(Nc3ccc4c(c3)C(C(C)C)NCC4)ncc12` (stereo not drawn) [Example 49, N^3-(2,6-dimethylphenyl)-N^6-(1-isopropyl-1,2,3,4-tetrahydroisoquinoline-7-yl)-1-methyl-1H-pyrazolo[3,4-d]pyrimidine-3,6-diamine], for which the half-inhibitory concentration (IC50) in experiment [1] was found to be 0.00162 µM; with TMD8 cells, 0.0196 µM.
The corresponding values for `Cc1cccc(C)c1Nc1nn(C)c2nc(Nc3ccc4c(c3)CNC(C)(C)C4)ncc12` [Example 53, N^6-(3,3-dimethyl-1,2,3,4-tetrahydroisoquinoline-7-yl)-N^3-(2,6-dimethylphenyl)-1-methyl-1H-pyrazolo[3,4-d]pyrimidine-3,6-diamine] are 0.000523 µM and 0.0319 µM.
The corresponding values for `Cc1cccc(C)c1Nc1nn(C2CCC(O)CC2)c2nc(Nc3ccc4c(c3)CNCC4)ncc12` (stereo not drawn) [Example 54, 4-(3-((2,6-dimethylphenyl)amino)-6-((1,2,3,4-tetrahydroisoquinoline-7-yl)amino)-1H-pyrazolo[3,4-d]pyrimidine-1-yl)cyclohexane-1-ol] are 0.00114 µM and 0.0609 µM.
The matching figures for `Cc1cccc(C)c1Nc1nn(C)c2nc(Nc3ccc4c(c3)C(C)NC(C)(C)C4)ncc12` (stereo not drawn) [Example 55, N3-(2,6-dimethylphenyl)-1-methyl-N 6-(1,3,3-trimethyl-1,2,3,4-tetrahydroisoquinoline-7-yl)-1H-pyrazolo[3,4-d]pyrimidine-3,6-diamine]: 0.000847 µM and 0.0168 µM.
In the case of `Cc1cccc(C)c1Nc1nn(C)c2nc(Nc3ccc4c(c3)CNC4)ncc12` [Example 56, N^3-(2,6-dimethylphenyl)-N^6-(isoindolin-5-yl)-1-methyl-1H-pyrazolo[3,4-d]pyrimidine-3,6-diamine hydrochloride], the IC50 stood at 0.000745 µM in experiment [1] and 0.0589 µM in the experiment on TMD8 cells.
The matching figures for `Cc1cccc(C)c1Nc1nn(C)c2nc(Nc3ccc4c(c3)C(C)(C)NCC4)ncc12` [Example 58, N6-(1,1-dimethyl-1,2,3,4-tetrahydroisoquinolin-7-yl)-N 3-(2,6-dimethylphenyl)-1-methyl-1H-pyrazolo[3,4-d]pyrimidine-3,6-diamine]: 0.00169 µM and 0.00877 µM.
The corresponding values for `Cc1cccc(C)c1Nc1nn(C)c2nc(Nc3ccc4c(c3)C(C)(C)N(C)CC4)ncc12` [Example 59, N3-(2,6-dimethylphenyl)-1-methyl-N 6-(1,1,2-trimethyl-1,2,3,4-tetrahydroisoquinoline-7-yl)-1H-pyrazolo[3,4-d]pyrimidine-3,6-diamine] are 0.00184 µM and 0.00927 µM.
For `CC(=O)N1CCc2ccc(Nc3ncc4c(Nc5c(C)cccc5C)nn(C)c4n3)cc2C1(C)C` [Example 60, 1-(7-((3-((2,6-dimethylphenyl)amino)-1-methyl-1H-pyrazolo[3,4-d]pyrimidine-6-yl)amino)-1,1-dimethyl-3,4-dihydroisoquinoline-2(1H)-yl)ethane-1-one], the figures for the half-inhibitory concentration (IC50) (in experiment [1]; with TMD8 cells) were 0.00401 µM and 0.159 µM, respectively.

Values taken from patent US11084824B2, “Pyrazolopyrimidine derivatives, preparation method thereof, and pharmaceutical composition for use in preventing or treating cancer, autoimmune disease and brain disease containing the same as an active ingredient” (Korea Research Institute of Chemical Technology, priority 2017, dated 2021).
